Experimental data as given in US7414075B2, “Composition for lowering internal lipid content” (Ajinomoto Co., Inc., priority 2003, dated 2008).

Columns and labels:
Type in all cases: in vivo, rat
[1] = Breeding process: body weight and ingested amount of feed in rats on 20% lard food with 1% cholesterol; settings: 0.1 mmol per kg feed, mean ± SD
Protocol: (§1) Twenty-four nine-week old male Wistar strain rats were used and divided into four groups each comprising six rats, including a control group, a 0.1 mmol/kg capsaicin group, a 0.1 mmol/kg capsinoid group, and a 1.0 mmol/kg capsinoid group. A 20% lard food to which 1% cholesterol was added was administered as a feed to the control group. For the remaining three groups, capsaicin of 0.1 mmol per kg final concentration of the feed, capsinoid of 0.1 mmol per kg final concentration of the feed, and capsinoid of 1.0 mmol per kg final concentration of the feed, respectively, were added to the feed, similar to the control group. The capsinoid was a mixture of 4-hydroxy-3-methoxybenzyl (E)-8-methyl-6-nonenoate and 4-hydroxy-3-methoxybenzyl 8-methylnonanoate in about 2:1 ratio.
(§2) The above groups each comprising six rats were subjected to pair feeding for four weeks. Breeding of the experimental animals was conducted in each individual cage and, during the breeding period, body weight was measured once a week and ingested amount of the feed was calculated by deducting the residue from the administered amount. Feces were collected for three days before dissection. After completion of breeding, the rats were sacrificed and dissected. Blood was collected. The liver, the fat around the kidney, and the fat around the epididymis were each separately excised and weighed. Furthermore, the ratio of the excised organs to the total body weight was calculated. Unless otherwise mentioned, the results in the following tables are shown in terms of mean value±standard deviation and, statistically, test of significance was conducted at p<0.05 by ANOVA and Duncan's multiple range test. In the tables, * means p<0.05.

male Wistar strain rats [2] = test: Excretion of cholesterol into feces during three days before dissection; settings: 0.1 mmol per kg feed, mean ± SD
Protocol: as §1
The above groups each comprising six rats were subjected to pair feeding for four weeks. Breeding of the experimental animals was conducted in each individual cage and, during the breeding period, body weight was measured once a week and ingested amount of the feed was calculated by deducting the residue from the administered amount. Feces were collected for three days before dissection. After completion of breeding, the rats were sacrificed and dissected. Blood was collected. […] Furthermore, the ratio of the excised organs to the total body weight was calculated. […]

male Wistar strain rats [3] = test: Weight of liver, fat around kidney and fat around epididymis, and ratio to total body weight; settings: 0.1 mmol per kg feed, four weeks
Protocol: as §1, §2

male Wistar strain rats [4] = test: Influence on serum cholesterol and arteriosclerosis index; settings: 0.1 mmol per kg feed, four weeks, * p<0.05
Protocol: as §1, §2
Blood was collected from the experimental animals bred as above and total cholesterol (T-chol) and HDL cholesterol (HDL-chol) in the serum was measured. More specifically, total cholesterol and HDL cholesterol were measured according to a method disclosed in “Akiko Tsujihara and Yumiko Tani: Influence of yucca saponin and pure konjak powder on lipid metabolism of rats fed with a high-fat and high-cholesterol feed: Eiyo Shokuryo Gakkaishi, vol. 51, pp. 157-163 (1998)”. The Arteriosclerosis index was calculated by (T-chol-HDL-chol)/(HDL-chol). The results are shown in Table 4, including the amount of triglyceride in the serum (TG).

SMILES: COc1cc(CNC(=O)CCCC/C=C/C(C)C)ccc1O [Capsaicin, capsaicin]
- Body Weight (g) on Dissected Day ([1]; four weeks): 367 ± 12 g
- Percentage Increase in Body Weight ([1]; four weeks): 133 ± 4%
- Body Weight (g) on Final Day of Breeding ([1]; pair feeding four weeks): 392 ± 11 g
- Cholesterol in Feces, Excreted Amount (male Wistar strain rats [2]): 240 ± 27 mg/3 days
- Cholesterol in Feces, Excreted Rate (male Wistar strain rats [2]): 48.6 ± 3.4%
- Fat (g) around Epididymis (male Wistar strain rats [3]; mean ± SD): 4.6 ± 0.5 g
- Fat (g) around Kidney (male Wistar strain rats [3]; mean ± SD): 3.8 ± 0.6 g
- Liver (male Wistar strain rats [3]; mean ± SD): 14.4 ± 0.9 g
- Fat (%) around Epididymis (male Wistar strain rats [3]; ratio to total body weight): 1.3 ± 0.1%
- Fat (%) around Kidney (male Wistar strain rats [3]; ratio to total body weight): 1.0 ± 0.1%
- Liver (%) (male Wistar strain rats [3]; ratio to total body weight, * p<0.05): 3.9 ± 0.1* %
- Arteriosclerosis Index (male Wistar strain rats [4]; (T-chol-HDL-chol)/(HDL-chol)): 1.2 ± 0.4
- HDL-chol (HDL cholesterol in serum) (male Wistar strain rats [4]; serum, mean ± SD): 34.2 ± 6.5* mg/dl
- T-chol (total cholesterol in serum) (male Wistar strain rats [4]; serum, mean ± SD): 71.2 ± 8.1* mg/dl
- TG (triglyceride in the serum) (male Wistar strain rats [4]; serum, mean ± SD): 25.5 ± 5.3* mg/dl
